The values that follow come from US20240317745A1, “SIGMA-1 RECEPTOR ANTAGONISTS AND THEIR APPLICATIONS” (Humanwell Pharmaceutical US, Inc., priority 2023, published 2024).

Counter-ions that a name gives are not always drawn.

In one series the target is Sigma-1 receptor (Cavia porcellus (Guinea pig), UniProt Q60492). Briefly: Sigma-1 receptor binding affinity test ([3H]-(+)-pentazocine displacement, guinea pig cerebral cortex membranes). As to conditions: [3H]-(+)-pentazocine 10 nM, 25° C., 180 minutes; read-out: Sigma1R Ki. The procedure: Guinea pigs (provided by Beijing Vital River Laboratory Animal Technology Co., Ltd.) were decapitated, and the operations were carried out on ice. The cerebral cortex was quickly harvested and pooled into a centrifuge tube. A suitable amount of buffer (0.05M Tris-HCl with 0.32M sucrose) was added to the tube, and the tissue was homogenized using a homogenizer (IKA, Ultra Turrax T25 Digital) at setting 4 for 3˜4 seconds, repeated four times. After homogenization, solution B was added to adjust the volume to 10 mL/g. The weight of the centrifuge tubes was balanced, and then they were centrifuged at 1000 g for 10 minutes using a high-speed refrigerated centrifuge. The supernatant was collected and adjusted to 2 mL/g with solution B, followed by centrifugation at 1000 g and 4° C. for 10 minutes. The supernatant was then centrifuged at 18000 rpm and 4° C. for 25 minutes. The pellet was resuspended in solution B to a final volume of 3 mL/g and incubated in a water bath at 25° C. for 15 minutes. After incubation, the suspension was centrifuged at 18000 rpm and 4° C. for 45 minutes. The pellet was stored at −80° C. for future use.
An appropriate amount of homogenization buffer was added to the prepared membrane, and was dispersed into a suspension using a homogenizer, protein concentration was measured to be 4 mg/ml. 100 micrograms of protein were added to each well of a 96-well plate, with a volume of 90 μl. […] [3H]-(+)-pentazocine (Perkin-Elmer, Cat #NET1056250UC) was added to each well (final concentration of 10 nM). The 96-well plate was incubated in a constant temperature water bath (25° C., 180 minutes). […] After washing, the samples were dried in a 37° C. oven.

Series [1] deals with Spinal Nerve Ligation (SNL) model. In words: Spinal Nerve Ligation (SNL) model, mechanical pain threshold by Von Frey filaments. It is filed as in vivo. As to conditions: rat, oral administration (i.g.), 100 mg/kg, mechanical pain threshold ipsilateral hind paw. The text has this: It is a type of chronic pain characterized by features such as spontaneous pain, hyperalgesia, abnormal pain, and sensory disturbances. Following nerve damage, neuropathic pain can persist, and its characteristics include hypersensitive responses to stimuli […], the presence of abnormal sensations (allodynia), and painful responses to non-harmful stimuli […]. The Spinal Nerve Ligation (SNL) model involves the tight ligation of the L5 and L6 spinal nerves using sutures.
In this experiment, pregabalin at a dose of 100 mg/kg was used as a positive control to compare the analgesic effect of the test compound. After administration, the mechanical pain threshold in the ipsilateral hind paw of the rat was tested using Von Frey filaments. The change in mechanical pain threshold before and after administration was used to determine whether the test compound at 100 mg/kg has a neuropathic pain-relieving effect in the SNL model.

For series [2], the system named is motor balance ability of rats. Briefly: Rat rotarod test (motor balance ability). As to conditions: 15 rpm. It is filed as in vivo. The procedure:
Placing rats on a continuously rotating rod causes them to move immediately in the opposite direction of the rod's motion. […] During the formal experiment, the time the rats stay on the rotarod is used as an indicator to measure their motor balance ability. This experiment aims to explore the impact of compound 37 at doses ranging from 10 to 300 mg/kg on the motor balance ability of rats in the rotarod test.
After administration of the test substance to the rats, they are placed on the rotarod fatigue tester, and the average time spent on the rod after three tests is recorded and analyzed.
Calculate the Maximum Possible Effect on Motor Balance Ability %: Maximum Possible Effect on Motor Balance Ability %=(1−test group/vehicle)×100%
Note: The motor balance ability of the vehicle group is considered as 0%, and the Maximum Possible Effect on Motor Balance Ability % for each group is calculated based on this standard.
Background: Falling from the rotarod earlier than controls is read as motor impairment.

Chain of Sigma-1 receptor (Q60492 whole entry): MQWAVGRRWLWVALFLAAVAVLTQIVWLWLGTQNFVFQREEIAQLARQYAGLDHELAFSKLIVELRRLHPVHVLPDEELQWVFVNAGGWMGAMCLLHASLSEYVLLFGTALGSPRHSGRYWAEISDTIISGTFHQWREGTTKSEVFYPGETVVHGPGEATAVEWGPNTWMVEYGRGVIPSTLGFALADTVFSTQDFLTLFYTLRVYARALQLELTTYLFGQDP

In the case of `Fc1ccc(-c2cc(CN3CCOCC3)on2)cc1F` [Compound 19], on Sigma-1 receptor, the Ki is 172 nM.
With `OC[C@@H]1CCCN1Cc1cc(-c2ccc(F)c(F)c2)no1` [Compound 41], at Sigma-1 receptor, the Ki was found to be 34 nM.
For `OC[C@H]1CCCN1Cc1cc(-c2ccc(F)c(F)c2)no1` [Compound 40], the inhibitory constant (Ki) at Sigma-1 receptor was 190 nM.
As for `CC1COCC(C)N1CCOCc1cc(-c2ccc(Cl)c(Cl)c2)no1` (centres unmarked) [Compound 77], the inhibitory constant (Ki) at Sigma-1 receptor is 14.9 nM.
Same read-out and setting: in the case of `O=C1CCN(Cc2cc(-c3ccc(F)c(F)c3)no2)CC1` [Compound 88] it was 959 nM.
For the molecule `CC(C)C[C@H](CN)CC(=O)O` [Pregabalin, pregabalin], the “analgesic activity in the SNL model” value in series [1] is reported as “some analgesic activity”.
As for `OC1CCN(Cc2cc(-c3ccc(F)c(F)c3)no2)CC1` [Compound 37], the “change in the time spent on the rotarod compared to the vehicle” value in series [2] (oral 15 minutes prior, 10-300 mg/kg) is recorded as “no significant change”. In addition, the “Maximum Possible Effect on Motor Balance Ability” value is −6% in series [2] (oral 15 minutes prior, first of four doses in 10-300 mg/kg); −6% in series [2] (oral 15 minutes prior, fourth of four doses in 10-300 mg/kg); 11% in series [2] (oral 15 minutes prior, second of four doses in 10-300 mg/kg); −6% in series [2] (oral 15 minutes prior, third of four doses in 10-300 mg/kg).
On to `OC[C@H]1CCCN1Cc1cc(-c2ccc(Cl)c(Cl)c2)no1` [Compound 44], for which the Ki at Sigma-1 receptor came to 19 nM.
Regarding `Cc1cccc([C@H](C)c2cnc[nH]2)c1C` [dexmedetomidine hydrochloride injection, dexmedetomidine hydrochloride, reference compound], in series [2] (subcutaneous injection 30 μg/kg, 15 minutes prior, vs vehicle), the “Maximum Possible Effect on Motor Balance Ability” value stood at 62%.
Take `Fc1ccc(-c2cc(CN3CC[Se]CC3)on2)cc1F` [Compound 20]: the Ki on Sigma-1 receptor is 48.9 nM.
Turning to `O[C@H]1CCN(Cc2cc(-c3ccc(F)c(F)c3)no2)C1` [Compound 38], the Ki at Sigma-1 receptor was found to be 378 nM.
For the molecule `O[C@@H]1CCN(Cc2cc(-c3ccc(Cl)c(Cl)c3)no2)C1` [Compound 43], the Ki on Sigma-1 receptor stood at 7.97 nM.
On to `OCCC1CCN(Cc2cc(-c3ccc(Cl)c(Cl)c3)no2)CC1` [Compound 47], for which the inhibition constant (Ki) at Sigma-1 receptor was determined as 0.74 nM.

The term Ki denotes the dissociation constant of the complex between target and ligand, obtained from inhibition or displacement.
